Source: ChEMBL document CHEMBL1201862, “PubChem BioAssay data set” (2004)
Where a name gives a salt, the structure may show the parent alone.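 Following 48 hours of exposure in 96-well plates, responses at five concentrations were used to interpolate endpoints linearly. GI50 marks 50% less growth.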 Calls of active or inactive are those of the source. Rule as the data show it: active = GI50 up to about 1.1 µM and inactive = higher.

Experiments:
Assay in all cases: inhibition of tumour cell growth, NCI panel, 48 h
[1] = system: A549
[2] = system: ACHN
[3] = system: CAKI-1
[4] = system: HCC 2998
[5] = system: HCT-15
[6] = system: MDA-MB-231
[7] = system: MOLT-4
[8] = system: NCI-H226
[9] = system: NCI-H522
[10] = system: OVCAR-3
[11] = system: SF-295
[12] = system: SK-MEL-28
[13] = system: SK-MEL-2
[14] = system: SN12C
[15] = system: T47D
[16] = system: UACC-257
[17] = system: UACC-62
[18] = system: UO-31
[19] = system: TK-10

SMILES | GI50 [1] | GI50 [2] | GI50 [3] | GI50 [4] | GI50 [5] [µM] | GI50 [6] | GI50 [7] | GI50 [8] | GI50 [9] | GI50 [10] | GI50 [11] | GI50 [12] | GI50 [13] | GI50 [14] | GI50 [15] | GI50 [16] | GI50 [17] | GI50 [18] | GI50 [19]
CCCCCc1cc2cc3c(c(O)c2c(=O)[nH]1)C1(CC3)C(=O)c2c(O)c3c(c(O)c2C1=O)C(=O)C(OC)=CC3=O (stereo not given) | 0.845 µM (active) | 0.522 µM (active) | 0.259 µM (active) | 1.05 µM (active) | 0.388 | 0.479 µM (active) | 0.56 µM (active) | 1.45 µM (inactive) | 0.359 µM (active) | 0.44 µM (active) | 3.01 µM (inactive) | 2.01 µM (inactive) | 0.867 µM (active) | 0.877 µM (active) | 0.239 µM (active) | 0.444 µM (active) | 1.24 µM (inactive) | 0.687 µM (active) | 
O=C1c2ccccc2C(=O)N1CCCCNOCCCN1C(=O)c2ccccc2C1=O | > 100 µM (inactive) | > 100 µM (inactive) | > 100 µM (inactive) | > 100 µM (inactive) | > 100 | > 100 µM (inactive) | > 100 µM (inactive) | > 100 µM (inactive) | > 100 µM (inactive) | > 100 µM (inactive) | > 100 µM (inactive) | > 100 µM (inactive) |  | > 100 µM (inactive) | > 100 µM (inactive) | > 100 µM (inactive) | > 100 µM (inactive) | > 100 µM (inactive) | > 100 µM (inactive)
O=C(O)C1CCCCN1CCc1c[nH]c2ccccc12 (stereo not given) | > 100 µM (inactive) | > 100 µM (inactive) | > 100 µM (inactive) | > 100 µM (inactive) | > 100 | > 100 µM (inactive) | > 100 µM (inactive) | > 100 µM (inactive) | > 100 µM (inactive) | > 100 µM (inactive) | > 100 µM (inactive) | > 100 µM (inactive) | > 100 µM (inactive) | > 100 µM (inactive) | > 100 µM (inactive) | > 100 µM (inactive) | > 100 µM (inactive) |  | > 100 µM (inactive)
COc1ccc2nc3c(nc2c1)C(C)(C)C=C3c1ccc(Br)cc1 | > 100 µM (inactive) | > 100 µM (inactive) | > 100 µM (inactive) | > 100 µM (inactive) | > 100 | > 100 µM (inactive) | > 100 µM (inactive) | > 100 µM (inactive) | > 100 µM (inactive) |  |  | > 10 µM (inactive) | > 100 µM (inactive) | > 100 µM (inactive) | > 100 µM (inactive) | > 100 µM (inactive) |  |  | > 100 µM (inactive)
CC(=O)/N=C1/N(/C=C2\C(=O)Oc3ccccc3C2=O)C(=O)/C(=C/c2cccc(Cl)c2Cl)N1C | 28.2 µM (inactive) | 13.7 µM (inactive) | 27.4 µM (inactive) | 16.7 µM (inactive) | 9.82 | 29.9 µM (inactive) | 20.7 µM (inactive) | 24 µM (inactive) | 18.2 µM (inactive) | 1.39 µM (inactive) | 34.4 µM (inactive) | 29 µM (inactive) | 19.8 µM (inactive) | 42.6 µM (inactive) | 32.1 µM (inactive) | 39 µM (inactive) | 31 µM (inactive) |  | 
CC(C)(C)C(=O)OC(N)/C=C/c1ccccc1 (stereo not given) | > 100 µM (inactive) | > 100 µM (inactive) | > 100 µM (inactive) | > 100 µM (inactive) | > 100 | > 100 µM (inactive) | > 100 µM (inactive) | > 100 µM (inactive) | > 100 µM (inactive) | > 100 µM (inactive) | > 100 µM (inactive) | > 100 µM (inactive) | > 100 µM (inactive) | > 100 µM (inactive) | > 100 µM (inactive) | > 100 µM (inactive) | > 100 µM (inactive) | > 100 µM (inactive) | 
CC(C)C(C/C=C1/CC(CO)(COC(=O)CC(C(C)C)C(C)C)OC1=O)C(C)C (stereo not given) | 0.298 µM (active) | 1.79 µM (inactive) | 2.15 µM (inactive) | 2.89 µM (inactive) | 15.6 | 4.21 µM (inactive) |  | 8.93 µM (inactive) | 12.9 µM (inactive) | 13.8 µM (inactive) | 0.259 µM (active) | 14.2 µM (inactive) | 15.2 µM (inactive) | 14.2 µM (inactive) | 0.982 µM (active) | 16 µM (inactive) | 15.7 µM (inactive) | 2.86 µM (inactive) | 2.08 µM (inactive)
C=C1C[C@@H]2CC[C@@]34C[C@H]5O[C@H]6[C@@H](O3)[C@H]3O[C@H](CC[C@@H]3O[C@H]6[C@H]5O4)CC(=O)C[C@@H]3[C@@H](OC)[C@@H](C[C@H](O)CN)O[C@H]3C[C@H]3O[C@@H](CC[C@@H]1O2)C[C@@H](C)C3=C [ERIBULIN MESYLATE] | 0.00197 µM (active) | 0.0556 µM (active) | 0.0179 µM (active) | 0.00201 µM (active) | 0.053 | 0.00255 µM (active) | 0.000791 µM (active) | 0.000522 µM (active) | 0.00025 µM (active) | 9.59e-05 µM (active) | 0.0065 µM (active) | 0.00361 µM (active) | 0.00607 µM (active) | 0.00361 µM (active) | < 0.0001 µM (active) |  | 0.000711 µM (active) | 0.126 µM (active) | 0.0815 µM (active)
